Values joined by “and” are separate entries in the source; they are usually repeats but may differ in a detail not shown here. Equal entries are not always repeated.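 Each compound was tested at five concentrations against cells in 96-well plates for 48 hours. GI50 is the concentration that inhibits growth by half. Definition used: TGI = concentration required for complete inhibition of growth.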
What was measured:
Assay in all cases: DTP human tumour cell line panel, 48 h
MDA-MB-468 breast = test system: MDA-MB-468 breast
A498 renal = test system: A498 renal
HCT-15 colon = test system: HCT-15 colon
HOP-62 NSCLC = test system: HOP-62 NSCLC
PC-3 prostate = test system: PC-3 prostate
U251 CNS = test system: U251 CNS
SNB-19 CNS = test system: SNB-19 CNS
EKVX NSCLC = test system: EKVX NSCLC
HCT-116 colon = test system: HCT-116 colon
SW-620 colon = test system: SW-620 colon
NCI-H226 lung = test system: NCI-H226 lung
T-47D breast = test system: T-47D breast
MDA-MB-231 breast = test system: MDA-MB-231 breast
SK-MEL-2 melanoma = test system: SK-MEL-2 melanoma
BT-549 breast = test system: BT-549 breast
LOX IMVI melanoma = test system: LOX IMVI melanoma
SK-MEL-5 melanoma = test system: SK-MEL-5 melanoma
IGROV1 ovarian = test system: IGROV1 ovarian
K-562 leukemia = test system: K-562 leukemia
OVCAR-5 ovarian = test system: OVCAR-5 ovarian
KM12 colon = test system: KM12 colon
HCC-2998 colon = test system: HCC-2998 colon
SF-539 CNS = test system: SF-539 CNS
CAKI-1 renal = test system: CAKI-1 renal
786-0 renal = test system: 786-0 renal
A549 NSCLC = test system: A549 NSCLC
OVCAR-3 ovarian = test system: OVCAR-3 ovarian
MDA-MB-435 = test system: MDA-MB-435
TK-10 renal = test system: TK-10 renal
NCI-H522 lung = test system: NCI-H522 lung
MALME-3M melanoma = test system: MALME-3M melanoma
SNB-75 CNS = test system: SNB-75 CNS
HS 578T breast = test system: HS 578T breast
UACC-257 melanoma = test system: UACC-257 melanoma
UO-31 renal = test system: UO-31 renal
SK-OV-3 ovarian = test system: SK-OV-3 ovarian
NCI/ADR-RES ovarian = test system: NCI/ADR-RES ovarian
NCI-H23 lung = test system: NCI-H23 lung
MCF7 breast = test system: MCF7 breast
DU-145 prostate = test system: DU-145 prostate
SF-268 CNS = test system: SF-268 CNS
SF-295 CNS = test system: SF-295 CNS

CC1=C2[C@@H](CC1)[C@]1(C)O[C@@](C3CCCCC3)(C[C@H]1OC(=O)CO)[C@H]2OC(=O)/C=C/c1ccccc1
GI50 (MDA-MB-468 breast): 9.64 µM | TGI (MDA-MB-468 breast): 24.4 µM

COc1cc(OC)c(/C=C/S(=O)(=O)Cc2cnc(OC)c(N)c2)c(OC)c1
GI50 (MDA-MB-468 breast): < 0.0212 µM | TGI (MDA-MB-468 breast): > 100 µM

C#C[C@]1(O)CC[C@H]2[C@@H]3CC=C4c5sc(Nc6cccc(Cl)n6)nc5CC[C@]4(C)[C@H]3CC[C@@]21C
GI50 (MDA-MB-468 breast): 1.49 µM | TGI (MDA-MB-468 breast): 4.05 µM

Cc1ccccc1NC(=O)N/C(N)=N/c1nc(-c2cccc([N+](=O)[O-])c2)cs1
GI50 (MDA-MB-468 breast): 1.64 µM | TGI (MDA-MB-468 breast): 7.24 µM

CN[C@@H](C)C(=O)N[C@H](C(=O)N1CCC[C@H]1C(=O)N[C@H]1c2ccccc2C[C@H]1OCC#CC#CCO[C@@H]1Cc2ccccc2[C@@H]1NC(=O)[C@@H]1CCCN1C(=O)[C@@H](NC(=O)[C@H](C)NC)C1CCCCC1)C1CCCCC1
GI50 (MDA-MB-468 breast): < 0.01 µM | TGI (MDA-MB-468 breast): 2.18 µM

CCOC(=O)Nc1nc2ccc(Cn3cccc3)cc2[nH]1
GI50 (MDA-MB-468 breast): 2.44 µM | TGI (MDA-MB-468 breast): > 100 µM

CO[C@@H]1/C=C\C=C(/C)C(=O)NC2=CC(=O)C(NCCN(C)C)=C(C[C@@H](C)C[C@@H](OC)[C@@H](O)[C@H](C)/C=C(\C)[C@H]1OC(N)=O)C2=O
GI50 (MDA-MB-468 breast): 0.0187 µM | TGI (MDA-MB-468 breast): 0.0656 µM

O=C(O[C@H]1CN[C@H](C#Cc2cc3ncnc(Nc4ccc5c(ccn5Cc5cc(F)ccc5F)c4)c3s2)C1)N1CCOCC1
GI50 (MDA-MB-468 breast): 0.141 µM | TGI (MDA-MB-468 breast): 1.59 µM

O=[N+]([O-])c1cc(Cl)c(Cl)c([N+](=O)[O-])c1Cl
GI50 (MDA-MB-468 breast): 1.05 µM | TGI (MDA-MB-468 breast): 2.64 µM

COc1ccc(CN(C)c2ccc(CO)c(Cl)c2)cc1
GI50 (MDA-MB-468 breast): 0.0551 µM | TGI (MDA-MB-468 breast): 0.197 µM

NOCC(=O)O
GI50 (MDA-MB-468 breast): > 100 µM | TGI (MDA-MB-468 breast): > 100 µM

O=c1c2cc(Cl)ccc2oc2ccc(OCCCCCN3CCCCC3)cc12
GI50 (MDA-MB-468 breast): 5.19 µM | TGI (MDA-MB-468 breast): 12.7 µM

CC(=O)c1c(C)[nH]c(-c2nc3ccc(N4CCN(C)CC4)cc3[nH]2)c1-c1ccc(OCC2CCOCC2)cc1
GI50 (MDA-MB-468 breast): 0.302 µM | TGI (MDA-MB-468 breast): 7.88 µM

COc1cc(C(=O)/C(C)=C/c2c[nH]c3ccccc23)cc(OC)c1OC
GI50 (MDA-MB-468 breast): 0.00334 µM

CC[C@H](NC(=O)[C@H](C)NC)C(=O)N1C[C@@H](O)C[C@H]1Cc1c(-c2[nH]c3cc(F)ccc3c2C[C@@H]2C[C@H](O)CN2C(=O)[C@H](CC)NC(=O)[C@H](C)NC)[nH]c2cc(F)ccc12
GI50 (MDA-MB-468 breast): 0.2 µM | TGI (MDA-MB-468 breast): 28 µM

CCN1CCN(C(=O)[C@]23CC[C@@H](C)[C@H](C)[C@@H]2C2=CC[C@@H]4[C@@]5(C)C/C(=C/c6ccncc6)C(=O)C(C)(C)[C@@H]5CC[C@@]4(C)[C@]2(C)CC3)CC1
GI50 (MDA-MB-468 breast): 1.63 µM | TGI (MDA-MB-468 breast): 3.38 µM

O=c1c(Oc2ccc(F)cc2F)cc2cnc(NC3CCOCC3)nc2n1C1CCS(=O)(=O)CC1
GI50 (MDA-MB-468 breast): > 25 µM | TGI (MDA-MB-468 breast): > 25 µM

CC(C)=CCCC(C)c1ccc(C)c2c1OCN(CC1CCNCC1)C2 (stereo not drawn)
GI50 (MDA-MB-468 breast): 5.01 µM | TGI (MDA-MB-468 breast): 18.5 µM

CC(=O)N[C@H]1C=C[C@@H]2/C=C(C)/C=C/[C@@H](C)[C@H]([C@H](C)[C@H](O)[C@@H](C)NC(C)=O)OC(=O)/C=C/C=C(C)\C=C\[C@]2(C)C1
GI50 (MDA-MB-468 breast): 0.00184 µM and 0.0045 µM

Cc1nc2sc(C(=O)Nc3cccc(Cl)c3C)c(N)c2cc1C(=O)/C=C/c1ccccc1
GI50 (MDA-MB-468 breast): 0.212 µM | TGI (MDA-MB-468 breast): 0.811 µM

COc1cc(Nc2nccc(Nc3ccc4c(C)[nH]nc4c3)n2)cc(OC)c1OC
GI50 (MDA-MB-468 breast): 2.12 µM | TGI (MDA-MB-468 breast): 7.86 µM

Cc1cc(C)c([O-])c(CN(C)CCN(C)Cc2cc(C)cc(C)c2[O-])c1.O=C([O-])c1cccc(C(=O)[O-])n1.[Ti+4]
GI50 (MDA-MB-468 breast): 1.33 µM | TGI (MDA-MB-468 breast): 3.65 µM

O=c1ccn(C2OC(CO)C(O)C2F)c(=O)[nH]1 (stereo not drawn)
GI50 (MDA-MB-468 breast): > 1000 µM | TGI (MDA-MB-468 breast): > 1000 µM

O=C(O)CCN1C(=O)/C(=C/C=C/c2ccc([N+](=O)[O-])o2)SC1=S
GI50 (A498 renal): 20 µM | TGI (A498 renal): 34.3 µM | GI50 (HCT-15 colon): 0.43 µM | GI50 (HOP-62 NSCLC): 1.86 µM | TGI (HOP-62 NSCLC): 3.92 µM | GI50 (PC-3 prostate): 1.93 µM | TGI (PC-3 prostate): 6.09 µM | GI50 (U251 CNS): 0.849 µM | GI50 (SNB-19 CNS): 2.09 µM | GI50 (EKVX NSCLC): 1.41 µM | GI50 (HCT-116 colon): 0.386 µM | TGI (HCT-116 colon): 1.66 µM | GI50 (SW-620 colon): 1.26 µM | TGI (SW-620 colon): 2.81 µM | GI50 (NCI-H226 lung): 1.4 µM | GI50 (T-47D breast): 1.41 µM | TGI (T-47D breast): 4.17 µM | GI50 (MDA-MB-231 breast): 1.27 µM | TGI (MDA-MB-231 breast): 2.58 µM | GI50 (SK-MEL-2 melanoma): 1.16 µM | GI50 (BT-549 breast): 1.13 µM | TGI (BT-549 breast): 2.38 µM | GI50 (LOX IMVI melanoma): 0.508 µM | GI50 (SK-MEL-5 melanoma): 1.38 µM | TGI (SK-MEL-5 melanoma): 2.68 µM | GI50 (IGROV1 ovarian): 1.58 µM | GI50 (K-562 leukemia): 0.378 µM | TGI (K-562 leukemia): 6.07 µM | GI50 (OVCAR-5 ovarian): 1.8 µM | TGI (OVCAR-5 ovarian): 3.34 µM | TGI (KM12 colon): 2.71 µM | GI50 (HCC-2998 colon): 1.65 µM | TGI (HCC-2998 colon): 3.06 µM | GI50 (SF-539 CNS): 1.09 µM | TGI (SF-539 CNS): 2.3 µM | GI50 (CAKI-1 renal): 1.77 µM | TGI (CAKI-1 renal): 3.17 µM | GI50 (786-0 renal): 1.63 µM | TGI (A549 NSCLC): 13.5 µM | GI50 (OVCAR-3 ovarian): 1.17 µM | TGI (OVCAR-3 ovarian): 2.57 µM | GI50 (MDA-MB-435): 1.53 µM | TGI (MDA-MB-435): 3.17 µM | GI50 (TK-10 renal): 1.81 µM | TGI (TK-10 renal): 3.35 µM | GI50 (NCI-H522 lung): 0.379 µM | TGI (NCI-H522 lung): 1.46 µM | GI50 (MALME-3M melanoma): 0.748 µM | TGI (MALME-3M melanoma): 2.12 µM | GI50 (SNB-75 CNS): 1.57 µM | TGI (SNB-75 CNS): 10.7 µM | GI50 (HS 578T breast): 1.65 µM | TGI (HS 578T breast): 6.71 µM | TGI (UACC-257 melanoma): 3.55 µM | GI50 (UO-31 renal): 1.26 µM | TGI (UO-31 renal): 2.53 µM | GI50 (SK-OV-3 ovarian): 3.98 µM | GI50 (NCI/ADR-RES ovarian): 2.01 µM | TGI (NCI/ADR-RES ovarian): 10.1 µM | GI50 (MDA-MB-468 breast): 1.13 µM | TGI (MDA-MB-468 breast): 2.49 µM | TGI (NCI-H23 lung): 3.08 µM | GI50 (MCF7 breast): 0.401 µM | GI50 (DU-145 prostate): 3.33 µM | TGI (DU-145 prostate): 12.2 µM | GI50 (SF-268 CNS): 1.68 µM | TGI (SF-268 CNS): 3.95 µM | GI50 (SF-295 CNS): 1.68 µM | TGI (SF-295 CNS): 3.24 µM

O=C1Nc2ccc(C(=O)c3ccco3)cc2/C1=C/c1cc(Cl)c(O)c(Cl)c1
GI50 (MDA-MB-468 breast): 1.86 µM | TGI (MDA-MB-468 breast): 16 µM

COc1cc(OC)cc(C2CC(=O)Nc3c2c(C)nn3-c2nc3ccccc3[nH]2)c1 (stereo not drawn)
GI50 (MDA-MB-468 breast): 3.93 µM | TGI (MDA-MB-468 breast): > 100 µM

C=C1C(=O)O[C@H]2[C@H]1CC/C(CNC(=O)c1cc3cc(OC)ccc3[nH]1)=C\CC[C@@]1(C)O[C@@H]21
GI50 (MDA-MB-468 breast): 0.714 µM | TGI (MDA-MB-468 breast): 2.61 µM

COc1ccc(/C=N\NC(=O)CN2CCN(c3cc4c(cc3F)c(=O)c(C(=O)N/N=C/c3ccc(OC)c(OC)c3)cn4C3CC3)CC2)cc1OC
GI50 (MDA-MB-468 breast): 3.07 µM | TGI (MDA-MB-468 breast): 8.35 µM

Reference: PubChem BioAssay (NCI)
